# Structures can show the parent of a compound that is named as a salt.
# Key:
# human B1R receptor = target: T1, human B1R receptor (Homo sapiens, UniProt P46663); experiment: Functional study on the bradykinin receptor 1 (B1R), FLIPR Ca2+ assay, hB1R cells; assay type: cell-based; conditions: agonist Lys-Des-Arg9-bradykinin 0.5 nM, % inhibition compared with the maximum achievable inhibition; for B1R Antagonism, human [10 μM] % Inhibition: test substance 10 μM, hB1R CHO K1 cells; for inhibition at 10 µM: CHO-K1, test substance 10 μM, read-out: B1R Antagonism, human [10 μM] % Inhibition
# T1 construct: host or cells: CHO K1 cells (Chinese hamster ovary), stably transfected
# T1 sequence (P46663 1-353): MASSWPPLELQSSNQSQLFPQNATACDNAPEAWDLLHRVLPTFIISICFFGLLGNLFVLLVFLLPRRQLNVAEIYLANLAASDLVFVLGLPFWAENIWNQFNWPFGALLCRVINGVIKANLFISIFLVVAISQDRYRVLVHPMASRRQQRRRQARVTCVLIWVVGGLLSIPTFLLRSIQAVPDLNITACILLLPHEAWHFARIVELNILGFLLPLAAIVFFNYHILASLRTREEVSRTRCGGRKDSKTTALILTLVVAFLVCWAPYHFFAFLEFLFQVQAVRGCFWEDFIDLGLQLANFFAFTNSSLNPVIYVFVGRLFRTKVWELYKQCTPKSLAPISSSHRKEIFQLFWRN
# Summary of the method: (§1)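 Cells were dye-loaded 60 min at 37 °C, equilibrated 20 min at room temperature, then given 10 μM compound. Ten minutes later the species-matched agonist was added (0.5 nM Lys-Des-Arg9-bradykinin, human; 100 nM Des-Arg9-bradykinin, rat) and Ca2+ influx suppression expressed as % of maximum inhibition.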
# B1R receptor of the rat = target: T2, B1R receptor of the rat (Rattus norvegicus, UniProt P97583); experiment: Functional study on the bradykinin receptor 1 (B1R), FLIPR Ca2+ assay, rB1R cells; assay type: cell-based; conditions: agonist Des-Arg9-bradykinin 100 nM, % inhibition compared with the maximum achievable inhibition; for B1R Antagonism, rat [10 μM] % Inhibition: test substance 10 μM, rB1R CHO K1 cells; for inhibition at 10 µM: CHO-K1, test substance 10 μM, read-out: B1R Antagonism, rat [10 μM] % Inhibition
# T2 construct: host or cells: CHO K1 cells (Chinese hamster ovary), stably transfected
# T2 sequence (P97583 1-337): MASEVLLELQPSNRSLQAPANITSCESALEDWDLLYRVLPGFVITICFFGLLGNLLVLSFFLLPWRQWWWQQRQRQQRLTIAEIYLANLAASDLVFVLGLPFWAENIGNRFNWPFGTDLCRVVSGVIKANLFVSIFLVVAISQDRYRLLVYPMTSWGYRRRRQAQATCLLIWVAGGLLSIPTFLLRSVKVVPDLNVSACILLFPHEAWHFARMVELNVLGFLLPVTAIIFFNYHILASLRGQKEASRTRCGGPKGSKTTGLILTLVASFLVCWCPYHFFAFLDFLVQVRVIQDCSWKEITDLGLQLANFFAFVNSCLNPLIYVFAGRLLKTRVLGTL
# Summary of the method: as §1
SMILES,"B1R Antagonism, human [10 μM] % Inhibition (human B1R receptor)","B1R Antagonism, rat [10 μM] % Inhibition (B1R receptor of the rat)",inhibition at 10 µM (human B1R receptor),inhibition at 10 µM (B1R receptor of the rat)
COc1cc(C)c(S(=O)(=O)N2CCCCC2COCC(=O)Nc2cccc3cnccc23)c(C)c1 (stereo not drawn) [Example 258],75.25%,99.75%,–,–
"CN1CCC(N2CCN(C(=O)COCC3CCCN3S(=O)(=O)c3c(Cl)cccc3Cl)CC2)CC1 (stereo not drawn) [Example 567, 2-((1-(2,6-dichlorophenylsulfonyl)pyrrolidin-2-yl)methoxy)-1-(4-(1-methylpiperidin-4-yl)piperazin-1-yl)ethanone]",–,–,104%,102%
"COc1cc(C)c(S(=O)(=O)N2CCCC2COCC(=O)N2CCCCCC2c2ccc(N(C)C)cc2)c(C)c1 (stereo not drawn) [Example 475, 1-(2-(4-(dimethylamino)phenyl)azepan-1-yl)-2-((1-(4-methoxy-2,6-dimethylphenylsulfonyl)pyrrolidin-2-yl)methoxy)ethanone]",–,–,90.4%,102%
"O=C(COCC1CCCCN1S(=O)(=O)c1c(Cl)cccc1Cl)N(Cc1ccccc1)c1ccccn1 (stereo not drawn) [Example 486, N-benzyl-2-((1-(2,6-dichlorophenylsulfonyl)piperidin-2-yl)methoxy)-N-(pyridin-2-yl)acetamide]",–,–,70.4%,101%
"CN1CCN(Cc2ccc(CNC(=O)COCC3CCCN3S(=O)(=O)c3c(Cl)cc(Cl)cc3Cl)cc2)CC1 (stereo not drawn) [Example 45, N-[4-(4-methyl-piperazin-1-ylmethyl)-benzyl]-2-[1-(2,4,6-trichloro-phenylsulfonyl)-pyrrolidin-2-ylmethoxy]-acetamide]",–,–,69.1%,92.4%
"COc1cc(C)c(S(=O)(=O)N2CCC[C@H]2COCC(=O)N2CCN(CC3CCN(C)CC3)CC2)c(C)c1 [Example 181, (S)-2-((1-(4-methoxy-2,6-dimethylphenylsulfonyl)pyrrolidin-2-yl)methoxy)-1-(4-((1-methylpiperidin-4-yl)methyl)piperazin-1-yl)ethanone]",–,–,105%,98.5%
"COc1cccc(N2CCN(C(=O)COCC3CCCCN3S(=O)(=O)c3ccc(Cl)c(Cl)c3)CC2)c1 (stereo not drawn) [Example 53, 2-[1-(3,4-dichloro-phenylsulfonyl)-piperidin-2-ylmethoxy]-1-[4-(3-methoxy-phenyl)-piperazin-1-yl]-ethanone]",–,–,64.8%,0%
"CN(C)CCCN1CCN(C(=O)COCC2CCCCN2S(=O)(=O)c2ccc(Cl)c(Cl)c2)CC1 (stereo not drawn) [Example 85, 2-[1-(3,4-dichloro-phenylsulfonyl)-piperidin-2-ylmethoxy]-1-[4-(3-dimethylamino-propyl)-piperazin-1-yl]-ethanone]",–,–,43.7%,40.8%
"Cc1cc(C)c(S(=O)(=O)N2CCCCC2COCC(=O)N2CCCC2Cc2ccccn2)c(C)c1 (stereo not drawn) [Example 226, 2-((1-(mesitylsulfonyl)piperidin-2-yl)methoxy)-1-(2-(pyridin-2-ylmethyl)pyrrolidin-1-yl)ethanone]",–,–,76.4%,96.9%
"CN1CCC(N2CCN(C(=O)COCC3CCCCN3S(=O)(=O)c3c(Cl)cccc3Cl)CC2)CC1 (stereo not drawn) [Example 565, 2-((1-(2,6-dichlorophenylsulfonyl)piperidin-2-yl)methoxy)-1-(4-(1-methylpiperidin-4-yl)piperazin-1-yl)ethanone]",104.82%,102.52%,–,–
"CN1CCC(N2CCN(C(=O)COCC3CCCN3S(=O)(=O)c3c(Cl)cc(C(F)(F)F)cc3Cl)CC2)CC1 (stereo not drawn) [Example 570, 2-((1-(2,6-dichloro-4-(trifluoromethyl)phenylsulfonyl)pyrrolidin-2-yl)methoxy)-1-(4-(1-methylpiperidin-4-yl)piperazin-1-yl)ethanone]",–,–,97.7%,98.1%
"COc1cc(C)c(S(=O)(=O)N2CCCCC2COCC(=O)NC2CCN(Cc3ccccc3)C2)c(C)c1 (stereo not drawn) [Example 365, N-(1-benzylpyrrolidin-3-yl)-2-((1-(4-methoxy-2,6-dimethylphenylsulfonyl)piperidin-2-yl)methoxy)acetamide]",–,–,55.6%,99.8%
"COc1cc(C)c(S(=O)(=O)N2CCCCC2COCC(=O)N2CCN(C(=O)OC(C)(C)C)CC2)c(C)c1 (stereo not drawn) [Example 101, tert-butyl 4-(2-((1-(4-methoxy-2,6-dimethylphenylsulfonyl)piperidin-2-yl)methoxy)acetyl)piperazin-1-carboxylate]",–,–,100%,100%
"Cc1cc(C)c(S(=O)(=O)N2Cc3ccccc3CC2COCC(=O)N2CCN(C3CCN(C)CC3)CC2)c(C)c1 (stereo not drawn) [Example 5, 1-[4-(1-methyl-piperidin-4-yl)-piperazin-1-yl]-2-[2-(2,4,6-trimethyl-phenylsulfonyl)-1,2,3,4-tetrahydro-isoquinolin-3-ylmethoxy]-ethanone]",–,–,103%,103%
"COc1cc(C)c(S(=O)(=O)N2CCCCC2COCC(=O)N2Cc3ccncc3C2)c(C)c1 (stereo not drawn) [Example 206, 2-((1-(4-methoxy-2,6-dimethylphenylsulfonyl)piperidin-2-yl)methoxy)-1-(1H-pyrrol[3,4-c]pyridin-2(3H)-yl)ethanone]",53.94%,99.49%,–,–
"Cc1c(S(=O)(=O)N2CCCCC2COCC(=O)N2CCN(C3CCN(C)CC3)CC2)sc2ccc(Cl)cc12 (stereo not drawn) [Example 151, 2-((1-(5-chloro-3-methylbenzo[b]thiophen-2-ylsulfonyl)piperidin-2-yl)methoxy)-1-(4-(1-methylpiperidin-4-yl)piperazin-1-yl)ethanone dihydrochloride]",–,–,107%,103%
"COc1cc(C)c(S(=O)(=O)N2CCCCC2COCC(=O)NCc2ccc(N3CCCCC3)cc2)c(C)c1 (stereo not drawn) [Example 14, 2-[1-(4-methoxy-2,6-dimethyl-phenylsulfonyl)-piperidin-2-ylmethoxy]-N-(4-piperidin-1-yl-benzyl)-acetamide]",–,–,97%,104%
"COc1cc(C)c(S(=O)(=O)N2CCCCC2COCC(=O)Nc2cc(C)nc3ccccc23)c(C)c1 (stereo not drawn) [Example 244, 2-((1-(4-methoxy-2,6-dimethylphenylsulfonyl)piperidin-2-yl)methoxy)-N-(2-methylquinolin-4-yl)acetamide]",–,–,70.2%,97.3%
"COc1cc(C)c(S(=O)(=O)N2CCCCC2COCC(=O)NC(CN(C)C)c2ccccc2)c(C)c1 (stereo not drawn) [Example 261, N-(2-(dimethylamino)-1-phenylethyl)-2-((1-(4-methoxy-2,6-dimethylphenylsulfonyl)piperidin-2-yl)methoxy)acetamide]",–,–,78.9%,98.9%
"CN1CCC(N2CCN(C(=O)COCC3CCCCN3S(=O)(=O)c3cc(Cl)sc3Cl)CC2)CC1 (stereo not drawn) [Example 170, 2-((1-(2,5-dichlorothiophen-3-ylsulfonyl)piperidin-2-yl)methoxy)-1-(4-(1-methylpiperidin-4-yl)piperazin-1-yl)ethanone dihydrochloride]",–,–,101%,97.8%
"COc1cc(C)c(S(=O)(=O)N2CCCCC2COCC(=O)N2CCN(CCC3CCN(C)CC3)CC2)c(C)c1 (stereo not drawn) [Example 212, 2-((1-(4-methoxy-2,6-dimethylphenylsulfonyl)piperidin-2-yl)methoxy)-1-(4-(2-(1-methylpiperidin-4-yl)ethyl)piperazin-1-yl)ethanone]",–,–,107%,100%
"CCN1CCN(CCCNC(=O)COCC2CCCCN2S(=O)(=O)c2c(C)cc(OC)cc2C)CC1 (stereo not drawn) [Example 412, N-(3-(4-ethylpiperazin-1-yl)propyl)-2-((1-(4-methoxy-2,6-dimethylphenylsulfonyl)piperidin-2-yl)methoxy)acetamide]",–,–,101%,103%
"O=C(COCC1CCCCN1S(=O)(=O)c1c(Cl)cccc1Cl)NC1CCN(Cc2ccccc2)CC1 (stereo not drawn) [Example 488, N-(1-benzylpiperidin-4-yl)-2-((1-(2,6-dichlorophenylsulfonyl)piperidin-2-yl)methoxy)acetamide]",–,–,101%,102%
"COc1ccc(S(=O)(=O)N2Cc3ccccc3C[C@H]2COCC(=O)N2CCN(CC3CCN(C)CC3)CC2)cc1 [Example 189, (S)-2-((2-(4-methoxyphenylsulfonyl)-1,2,3,4-tetrahydroisoquinolin-3-yl)methoxy)-1-(4-((1-methylpiperidin-4-yl)methyl)piperazin-1-yl)ethanone dihydrochloride]",–,–,70.7%,86.4%

# From patent publication US8435978B2, “Substituted sulfonamide compounds” (Gruenenthal GmbH, priority 2006, dated 2013)
